We go through 11 molecules from patent US11072581B2, “N-acyl-arylsulfonamide derivatives as aminoacyl-tRNA synthetase inhibitors” (Oxford Drug Design Limited, priority 2015, dated 2021).

Data set [1] concerns the target T1, EcoVRS (valyl-tRNA synthetase from Escherichia coli) (Escherichia coli, UniProt P07118).
T1 construct: made in house; host or cells: Escherichia coli M15
Briefly: aaRS aminoacylation assay (ATP consumption), EcoVRS. The format is biochemical. The following applies: i.a. = inactive at a concentration below 50 uM. Here is the method: (§1) The compounds have been tested for antibacterial activity in vitro as aminoacyl-tRNA synthetases (aaRS) inhibitors following the following process.
(§2) Leucyl-, valyl- and isoleucyl-tRNA synthetases (LRS, VRS and IRS, respectively) from Escherichia coli (Eco) and Staphylococcus aureus (Sau).
(§3) Escherichia coli M15 cells transformed with plasmid pQE-60, or pQE-70, containing the open-reading frame sequence of one targeted aaRS were induced with 1 mM IPTG (Isopropyl β-D-1-thiogalactopyranoside) for 3 h at 37° C. Bacterial cells were harvested and lysed with 20 mM NaH2PO4 (pH 8.0), 200 mM NaCl, 10 mM imidazole and protease inhibitor cocktail (Roche). Pathogenic aaRS was purified by nickel affinity standard chromatography. Protein concentration was determined by spectrophotometry.
(§4) tRNA^Leu, tRNA^Val and tRNA^Ile from E. coli and S. aureus were transcribed in vitro for 4 h at 37° C. using T7 RNA polymerase. Transcription reaction contained 40 mM Tris-HCl (pH 8.0), 22 mM MgCl2, 1 mM spermidine, 5 mM DTT, 0.01% Triton X-100, 4 mM GTP, 4 mM ATP, 4 mM UTP, 4 mM CTP, 16 mM GMP, […] T7 RNA polymerase and 150 μg BstNI digested plasmid. Once finished, the reaction was applied on a 6% polyacrylamide-8 M urea denaturing gel to purify the transcribed tRNA and discard any impurities. Purified tRNA was quantified with Nanodrop 2000 (Thermo Scientific).
(§5) The aminoacylation reaction catalyzed by aminoacyl-tRNA synthetases (aaRS) takes place in two steps. In the first step, aaRS activates its cognate amino acid with ATP; and in the second step the activated amino acid is loaded to its corresponding tRNA. This reaction can be summarized as follows: ARS+aa+ATP=ARS-aa-AMP+PPi ARS-aa-AMP+tRNA=aa-tRNA+AMP+ARS [2] (ARS, Aminoacyl-tRNA synthetase; aa, amino acid; ARS-aa-AMP, enzyme-bound to aminoacyl-adenylate; aa-tRNA, aminoacyl-tRNA).
(§6) The activity of the pathogenic aaRSs was monitored by measuring the ATP consumption rate, since this consumption is directly proportional to the activity of the aaRS. If the tested compound, at a single point concentration of 50 μM, is inhibiting the aminoacylation reaction, there is a decrease in the ATP consumption, compared to the control reaction without compound, allowing the calculation of an inhibition ratio.
(§7) When the inhibition ratio for a given compound was above 80%, IC50 determination was performed with the same enzymatic assay (using the commercial kit Kinase RR from BioThema AB, Sweden) in the presence of serial dilutions of inhibitor. Known inhibitors of LRS, VRS or IRS were used as a positive control of the assay. The IC50 was calculated based on nonlinear regression analysis.

Data set [2] has as its target T2, SauLRS (leucyl-tRNA synthetase from Staphylococcus aureus) (Staphylococcus aureus, UniProt Q2FXH2).
T2 construct: made in house; host or cells: Escherichia coli M15
T2 sequence (Q2FXH2 1-805): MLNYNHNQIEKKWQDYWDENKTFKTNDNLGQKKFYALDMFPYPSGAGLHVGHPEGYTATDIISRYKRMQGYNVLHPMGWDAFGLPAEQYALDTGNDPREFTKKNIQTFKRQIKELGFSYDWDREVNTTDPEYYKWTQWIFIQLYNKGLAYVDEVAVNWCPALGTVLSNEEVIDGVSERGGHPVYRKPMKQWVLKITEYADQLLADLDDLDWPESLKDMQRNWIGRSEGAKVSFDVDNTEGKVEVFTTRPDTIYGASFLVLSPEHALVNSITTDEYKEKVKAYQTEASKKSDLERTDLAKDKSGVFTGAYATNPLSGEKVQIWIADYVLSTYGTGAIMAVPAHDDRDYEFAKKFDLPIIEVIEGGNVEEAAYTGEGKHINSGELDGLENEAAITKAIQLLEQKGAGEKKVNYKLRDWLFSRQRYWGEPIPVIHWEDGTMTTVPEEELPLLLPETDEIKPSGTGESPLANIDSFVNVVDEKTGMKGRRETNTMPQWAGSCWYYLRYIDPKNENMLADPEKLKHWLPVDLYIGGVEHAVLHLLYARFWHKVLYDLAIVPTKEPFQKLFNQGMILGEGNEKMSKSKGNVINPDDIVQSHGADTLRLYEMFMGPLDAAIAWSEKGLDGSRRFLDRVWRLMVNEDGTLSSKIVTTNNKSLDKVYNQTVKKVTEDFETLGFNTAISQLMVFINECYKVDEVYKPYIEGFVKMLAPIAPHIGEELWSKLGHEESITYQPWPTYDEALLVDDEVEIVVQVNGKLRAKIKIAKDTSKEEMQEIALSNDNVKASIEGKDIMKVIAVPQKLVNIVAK
Briefly: aaRS aminoacylation assay (ATP consumption), SauLRS. The format is biochemical. The note with it: i.a. = inactive at a concentration below 50 uM. Here is the method: as §1, §2, §3, §4, §5, §6, §7

The target in data set [3] is T3, EcoLRS (leucyl-tRNA synthetase from Escherichia coli) (Escherichia coli, UniProt P07813).
T3 construct: made in house; host or cells: Escherichia coli M15
T3 sequence (P07813 whole entry): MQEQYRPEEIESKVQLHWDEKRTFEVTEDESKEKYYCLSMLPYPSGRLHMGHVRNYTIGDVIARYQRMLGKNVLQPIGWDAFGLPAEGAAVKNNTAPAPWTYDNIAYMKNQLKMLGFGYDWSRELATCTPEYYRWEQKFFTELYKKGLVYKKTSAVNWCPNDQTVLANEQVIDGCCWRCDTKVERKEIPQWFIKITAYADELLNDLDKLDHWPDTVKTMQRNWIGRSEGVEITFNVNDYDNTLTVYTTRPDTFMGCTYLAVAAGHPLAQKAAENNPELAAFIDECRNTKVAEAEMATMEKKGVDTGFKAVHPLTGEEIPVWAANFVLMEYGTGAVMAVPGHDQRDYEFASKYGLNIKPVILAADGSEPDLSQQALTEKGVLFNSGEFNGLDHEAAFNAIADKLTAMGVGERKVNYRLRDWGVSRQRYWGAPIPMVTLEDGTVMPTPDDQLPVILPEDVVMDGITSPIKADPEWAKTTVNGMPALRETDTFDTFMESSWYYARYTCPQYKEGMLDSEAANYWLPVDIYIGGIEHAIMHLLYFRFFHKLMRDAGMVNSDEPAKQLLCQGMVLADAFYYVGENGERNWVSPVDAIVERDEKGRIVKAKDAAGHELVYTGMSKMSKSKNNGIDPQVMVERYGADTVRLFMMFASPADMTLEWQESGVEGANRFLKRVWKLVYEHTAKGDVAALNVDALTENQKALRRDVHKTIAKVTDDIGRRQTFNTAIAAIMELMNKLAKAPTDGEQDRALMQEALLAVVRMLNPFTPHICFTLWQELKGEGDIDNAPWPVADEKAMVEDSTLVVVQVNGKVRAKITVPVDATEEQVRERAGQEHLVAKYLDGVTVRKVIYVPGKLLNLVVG
Briefly: aaRS aminoacylation assay (ATP consumption), EcoLRS. The format is biochemical. The following applies: for % at single point concentration (inhibition ratio), EcoLRS: @50 μM compound. On the procedure:
as §1, §2, §3, §4, §5, §6, §7

Data set [4] addresses T4, SauVRS (valyl-tRNA synthetase from Staphylococcus aureus) (Staphylococcus aureus, UniProt Q2FXR8).
T4 construct: made in house; host or cells: Escherichia coli M15
T4 sequence (Q2FXR8 1-876): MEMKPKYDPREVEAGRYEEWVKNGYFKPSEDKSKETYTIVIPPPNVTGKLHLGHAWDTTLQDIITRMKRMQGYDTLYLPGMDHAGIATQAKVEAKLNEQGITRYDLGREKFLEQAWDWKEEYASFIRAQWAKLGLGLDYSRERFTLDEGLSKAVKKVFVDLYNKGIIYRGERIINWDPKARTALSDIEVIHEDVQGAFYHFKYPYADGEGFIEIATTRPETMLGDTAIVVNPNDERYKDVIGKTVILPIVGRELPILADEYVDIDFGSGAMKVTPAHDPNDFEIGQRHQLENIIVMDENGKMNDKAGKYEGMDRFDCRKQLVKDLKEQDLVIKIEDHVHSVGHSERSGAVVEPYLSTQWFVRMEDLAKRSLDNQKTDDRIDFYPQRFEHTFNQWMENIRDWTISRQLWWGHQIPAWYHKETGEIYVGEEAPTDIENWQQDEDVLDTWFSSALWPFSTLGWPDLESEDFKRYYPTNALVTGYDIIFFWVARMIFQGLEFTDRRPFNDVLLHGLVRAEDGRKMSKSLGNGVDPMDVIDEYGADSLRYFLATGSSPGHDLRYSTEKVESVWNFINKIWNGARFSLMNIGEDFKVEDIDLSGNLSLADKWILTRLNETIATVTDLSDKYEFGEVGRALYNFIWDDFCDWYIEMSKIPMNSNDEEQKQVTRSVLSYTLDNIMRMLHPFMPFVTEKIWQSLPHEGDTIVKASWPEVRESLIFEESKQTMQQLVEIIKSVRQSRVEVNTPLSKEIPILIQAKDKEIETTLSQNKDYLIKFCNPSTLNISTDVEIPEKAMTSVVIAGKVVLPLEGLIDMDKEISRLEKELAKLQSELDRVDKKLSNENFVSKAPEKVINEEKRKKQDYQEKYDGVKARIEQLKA
Put plainly: aaRS aminoacylation assay (ATP consumption), SauVRS. The following applies: i.a. = inactive at a concentration below 50 uM. The format is biochemical. On the procedure: as §1, §2, §3, §4, §5, §6, §7

Data set [5] deals with T5, EcoIRS (isoleucyl-tRNA synthetase from Escherichia coli) (Escherichia coli, UniProt P00956).
T5 construct: made in house; host or cells: Escherichia coli M15
T5 sequence (P00956 whole entry): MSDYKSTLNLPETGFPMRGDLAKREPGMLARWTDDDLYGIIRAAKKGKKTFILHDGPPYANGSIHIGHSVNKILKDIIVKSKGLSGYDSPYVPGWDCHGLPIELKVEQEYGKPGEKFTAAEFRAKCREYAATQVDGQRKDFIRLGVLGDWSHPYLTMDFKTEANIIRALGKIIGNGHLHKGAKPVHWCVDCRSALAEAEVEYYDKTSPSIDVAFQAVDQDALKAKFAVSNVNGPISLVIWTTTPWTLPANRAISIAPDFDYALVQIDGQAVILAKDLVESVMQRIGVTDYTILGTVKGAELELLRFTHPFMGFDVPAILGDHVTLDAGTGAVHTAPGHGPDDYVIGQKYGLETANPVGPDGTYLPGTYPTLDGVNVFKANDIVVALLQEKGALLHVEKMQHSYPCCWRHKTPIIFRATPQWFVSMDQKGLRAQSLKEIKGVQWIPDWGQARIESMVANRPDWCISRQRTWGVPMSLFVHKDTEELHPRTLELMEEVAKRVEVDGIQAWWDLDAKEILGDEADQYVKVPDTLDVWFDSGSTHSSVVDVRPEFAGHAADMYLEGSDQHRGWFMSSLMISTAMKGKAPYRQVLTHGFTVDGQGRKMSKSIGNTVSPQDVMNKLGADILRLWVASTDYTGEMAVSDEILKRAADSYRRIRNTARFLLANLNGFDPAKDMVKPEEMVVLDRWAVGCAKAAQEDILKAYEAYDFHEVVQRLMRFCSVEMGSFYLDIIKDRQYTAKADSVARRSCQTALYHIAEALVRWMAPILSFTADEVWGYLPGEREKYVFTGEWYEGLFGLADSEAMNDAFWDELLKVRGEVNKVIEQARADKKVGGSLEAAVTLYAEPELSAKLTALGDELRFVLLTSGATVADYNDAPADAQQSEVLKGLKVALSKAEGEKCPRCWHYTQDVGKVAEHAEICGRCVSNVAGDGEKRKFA
Briefly: aaRS aminoacylation assay (ATP consumption), EcoIRS. The format is biochemical. The following applies: i.a. = inactive at a concentration below 50 uM. On the procedure:
as §1, §2, §3, §4, §5, §6, §7

Structures can show the parent of a compound that is named as a salt.

T1 sequence (P07118 whole entry): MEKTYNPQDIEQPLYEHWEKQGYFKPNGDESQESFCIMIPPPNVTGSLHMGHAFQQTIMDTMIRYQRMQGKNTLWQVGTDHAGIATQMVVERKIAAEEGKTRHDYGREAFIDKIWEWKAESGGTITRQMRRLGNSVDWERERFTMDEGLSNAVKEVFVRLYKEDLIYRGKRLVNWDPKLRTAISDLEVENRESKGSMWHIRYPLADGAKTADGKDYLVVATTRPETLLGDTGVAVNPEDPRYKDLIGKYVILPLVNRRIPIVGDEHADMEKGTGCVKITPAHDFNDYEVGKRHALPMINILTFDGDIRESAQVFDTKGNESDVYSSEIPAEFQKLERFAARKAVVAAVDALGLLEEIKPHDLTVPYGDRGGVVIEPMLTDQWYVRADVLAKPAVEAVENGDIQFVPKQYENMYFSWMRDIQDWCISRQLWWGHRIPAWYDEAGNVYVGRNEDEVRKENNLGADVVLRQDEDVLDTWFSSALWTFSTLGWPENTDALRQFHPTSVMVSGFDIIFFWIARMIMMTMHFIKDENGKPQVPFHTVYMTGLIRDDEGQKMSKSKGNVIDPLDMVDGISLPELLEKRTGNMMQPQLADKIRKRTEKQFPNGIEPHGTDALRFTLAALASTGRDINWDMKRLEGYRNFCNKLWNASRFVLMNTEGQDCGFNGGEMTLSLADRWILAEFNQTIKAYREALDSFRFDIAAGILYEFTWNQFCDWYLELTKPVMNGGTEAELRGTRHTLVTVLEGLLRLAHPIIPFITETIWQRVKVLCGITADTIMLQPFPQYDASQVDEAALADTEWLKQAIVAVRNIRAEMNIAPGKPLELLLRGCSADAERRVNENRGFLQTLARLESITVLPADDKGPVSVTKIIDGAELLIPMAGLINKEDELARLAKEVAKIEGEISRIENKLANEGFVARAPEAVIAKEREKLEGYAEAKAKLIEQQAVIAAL

Regarding `CC(C)C[C@H](N)C(=O)NS(=O)(=O)c1cccc2c(N(C)C)cccc12` (as salt: hydrochloride) [Compound 5.16, (S)-2-amino-N-((5-(dimethylamino)naphthalen-1-yl)sulfonyl)-4-methylpentanamide hydrochloride], the melting point (as a rule, the temperature, or range, at which the solid turns liquid) lay in the range of 178 to 180 °C.
Still for that read-out and setting: the same measure for `CC(C)C[C@H](N)C(=O)NS(=O)(=O)c1cccc2cc(C(N)=O)ncc12` (as salt: salt) [Compound 5.24, 8-(N-(L-Leucyl)sulfamoyl)isoquinoline-3-carboxamide]: 222.9 °C; for `CC(C)C[C@H](N)C(=O)NS(=O)(=O)c1ccc(Br)c2ccncc12` (as salt: trifluoroacetate) [Compound 5.22]: 137 to 139 °C.
Turning to `CC(C)C[C@H](N)C(=O)NS(=O)(=O)c1cccc2c1CNCC2` (as salt: trifluoroacetate) [Compound 5.26, (S)-2-amino-4-methyl-N-((1,2,3,4-tetrahydroisoquinolin-8-yl)sulfonyl) pentanamide trifluoroacetate], the melting point is 90 to 92 °C.
On the same count and under the same terms, the figure for `CC(C)C[C@H](N)C(=O)NS(=O)(=O)c1ccc(F)cc1` [Compound 5.8] is 235 to 236 °C.
Same read-out and setting: the figure for `COc1ccc(S(=O)(=O)NC(=O)[C@@H](N)CC(C)C)c2ccccc12` [Compound 5.18] is 253 to 255 °C; for `CC(C)C[C@H](N)C(=O)NS(=O)(=O)c1ccccn1` [Compound 5.20] it is 203 to 205 °C.
The same measure, in the same setting: the figure for `CC(C)C[C@H](N)C(=O)NS(=O)(=O)c1ccc(O)c2ccccc12` [Compound 5.23] is 250 to 252 °C.
Take `Cc1cc(-c2cccc(S(=O)(=O)NC(=O)[C@@H](N)C3CCCCC3)c2)nc(N)n1` [Compound 5.32]: the “IC50 EcoVRS” value in data set [1] is listed as “i.a”. Moreover, the “IC50 SauLRS” value in data set [2] was “i.a”. Further, in data set [3], the IC50 (commonly the midpoint of a concentration-inhibition curve) was found to be 38 µM. In addition, the “IC50 SauVRS” value in data set [4] is on record as “i.a”. The “IC50 EcoIRS” value in data set [5] is listed as “i.a”.
On to `CC(C)C[C@H](N)C(=O)NS(=O)(=O)c1cccc(-c2cc(OC(C)C)nc(N)n2)c1` [Compound 5.51], for which the “% at single point concentration (inhibition ratio), EcoLRS” value in data set [3] came to 102%@50 μM.
For the molecule `CC(C)C[C@H](N)C(=O)NS(=O)(=O)c1cccc(-c2cc(Oc3ccccc3)nc(N)n2)c1` [Compound 5.52], in data set [3], the “% at single point concentration (inhibition ratio), EcoLRS” value is 104%@50 μM.
